Test results from patent US5597798A, “Taxol and epidermal growth factor used to enhance treatment of ovarian cancer” (The Regents of the University of California, priority 1994, dated 1997).
Read-outs that look alike come from different tables or passages of the source.

Experiments:
[1] = test system: 2008 human ovarian carcinoma cells; test: Colony forming assay, effect of EGF on sensitivity to cytotoxic agents; format: cell-based
[2] = test system: cellular cAMP; test: Determination of cellular cAMP content; format: cell-based; conditions: for cAMP level, 10 min. mean: 10 min treatment; for cAMP level, 10 min. mean / cAMP level, 60 min. mean: means of 6 experiments; for cAMP level, 60 min. mean: 60 min treatment
[3] = test system: 2008 cells; test: Colony forming (colonogenic) assay, effect of TPA, phorbol and staurosporine on DDP sensitivity
[4] = test system: human KB carcinoma cells; conditions: TPA treatment; cited from earlier work
[5] = test system: 2008 cells; test: Cellular accumulation of [195mPt]DDP; format: cell-based, human; conditions: concurrent 60 min
Protocol: Cell-associated ^195m Pt was determined by as a measure of DDP accumulation. For DDP accumulation studies, subconfluent monolayers were treated with 37° C. RPMI 1640 medium containing 20 μM [^195m Pt]-DDD. The dishes were immediately returned to the incubater. After 1 h incubation, the medium was aspirated, the cells were washed rapidly with 4° C. PBS 4 times. Two ml of 1N NaOH was added and the cells allowed to digest overnight. A forty μl aliquot was used for determination of protein content by the method of Bradford (Bradford, Anal. Biochem. 72:248-254 (1976)), and the remaining […] was counted in glass tubes on a Trak 1191 gamma counter (Tracer Analytic, EIK Grove Village, Ill.). Columns represent the mean values of 3 experiments performed with duplicate cultures. The bars represent the standard deviation.
Cultured 2008 cells were treated concurrently with [^195m Pt]DDP and TPA for 60 min. A vehicle control consisting of an appropriate dilution of acetone was run concurrently. […] Cells treated with medium alone contained 140±13 pmol/mg of protein, whereas those treated with the acetone control contained 141±7 pmol/mg of protein, and those treated with TPA contained 143±21 pmol/mg of protein.

[6] = Colony formation, TPA sensitization to DDP with cycloheximide (CHM); format: cell-based; conditions: 2 μM DDP with 10^-7 M TPA 1 h
[7] = test system: 2008/C13*5 cells; test: Colonogenic assay, effect of TPA on DDP sensitivity of DDP-resistant cells; format: cell-based, human; conditions: TPA and DDP concurrently for 1 h
From the text: The following cell lines were used in these studies: 2008 human ovarian carcinoma (Disaia, et al., Am. J. Obstet. Gynecol. 114:978 (1972)), COLO 316 human ovarian carcinoma (Woods et al., Cancer Res. 39:4449 (1979)), a DDP resistant variant 2008/C13*, derived from the parent 2008 cell line (Andrews, et al., Cancer Res. 45:6250 (1985)), A549 non-small cell lung cancer (Lieber et al., Int. J. Cancer 17:62 (1976)), NCI-H520 squamous cell lung cancer (Brower et al., Cancer Res. 46: 798 (1986)), NCI-H596 adenosquamous lung cancer (Banks-Schlegel et al., Cancer Res. 45: 1187 (1985)), UMC 31 small cell lung cancer cells (Graziano et al., Genes, Chromosomes and Cancer 3: 283 (1991)), GLC4 small cell lung cancer cells (Zijlstra et al., Cancer Res. 47: 1780 (1987)), UMCC10b head and neck cancer cells (Krause et al., Arch. Otolayngol. 107: 703 (1981)), 5637 bladder cancer cells (Fogh et al., J. Natl. Cancer Inst. 58: 209 (1977)), MIA PaCa-2 pancreatic cancer cells (Yunis et al., Int. […]
Colony forming assays were used to assess the effect of each drug on the sensitivity of various tumor cell lines to cytotoxic agents (Andrews, et al., Chem.-Biol. Interact 65:51-58 (1988)). […] Colonies of over 60 cells were counted macroscopically.
The 2008/C13*5 cell line is 8-10-fold resistant to DDP. […] Drug cytotoxicity was determined by colonogenic assay on plastic dishes. […]

[8] = test system: human EGF receptor; test: Expression of human EGF receptor in transfected C127 cells (monoclonal antibody 528 staining); format: cell-based; conditions: Desferrioxamine 10 μM for 60 hs
[9] = test system: C127 mouse fibroblasts transfected with the human EGF receptor gene; test: Tetrazolium (MTT) growth rate assay, DDP sensitivity; format: cell-based
Protocol: Expression of the transferrin receptor gene is normally under the control of the transferrin […], and is regulated by iron (Owen and Kuhn, EMBO J. 6:1287 (1987)). Incubation with the iron chelator desferrioxamine induces expression of the transferrin receptor gene (Bridges and Cudkowicz, J. Biol. Chem. 259:12970 (1984)). […] Closed squares, transfected […] mouse fibroblasts pretreated with desferrioxamine; open squares, untreated cells. […] Louis, Mo.) was prepared at 1 mg/ml in DME media and on day 7, 50 μl are added to the microculture wells. After a 4 h incubation at 37° C., all the media was removed from each well, and 150 μl of 100% DMSO (dimethyl sulfoxide) was added to solubilize the MTT-formazan product. After thorough mixing, absorbance at 540 nm was measured with a Molecular Devices Vmax Kinetic microplate reader.

[10] = EGF and the cytotoxic agent concurrently for 1 h
[11] = Homo sapiens, Ovarian carcinoma cell, 1 h, read-out: IC50 in absence of EGF
[12] = mean ± SD of at least 3 experiments
[13] = read-out: IC50 in presence of EGF, EGF and the cytotoxic agent concurrently for 1 h

O=c1[nH]cc(F)c(=O)[nH]1 [5-fluorouracil]
effect of EGF on sensitivity of 2008 cells to the agent (in words) [1, 10]: significant increase in sensitivity | IC50 [1, 11]: 20 µM | Dose modifying factor (ratio of the IC50 values in control and EGF-treated cells) [1, 12]: 1.8 ± 0.3 | IC50 [1, 13]: 11 µM

C=C[C@@]1(C)CC(=O)[C@]2(O)[C@@]3(C)[C@@H](O)CCC(C)(C)[C@@H]3[C@H](O)[C@H](OC(C)=O)[C@@]2(C)O1 [Forskolin]
increase in cAMP content [2]: 297 fold | cAMP level, 10 min. mean [2]: 2135.0 pmol/mg protein | cAMP level, 60 min. mean [2]: 6365.0 pmol/mg protein

CCCCCCCCCCCCCC(=O)O[C@@H]1[C@@H](C)[C@@]2(O)[C@@H](C=C(CO)C[C@]3(O)C(=O)C(C)=C[C@@H]23)[C@H]2C(C)(C)[C@]12OC(C)=O [TPA]
interaction between TPA and DDP, median effect analysis [3]: truly synergistic | loss of TPA sensitization ([3]; 0.1 μM TPA 1 h, 2 μM DDP 1 h): largely disappeared by 7 h | survival, % of control ([3]; 2 μM DDP plus 0.1 μM TPA): 38±16% | survival normalized to 2 μM DDP alone = 100% ([3]; 2 μM DDP plus TPA, no staurosporine): 44% | DDP sensitization after TPA pretreatment ([3]; 24-h exposure to 0.1 μM TPA followed by 1-h exposure to DDP): a similar degree of sensitization was observed | increase in DDP sensitivity ([3]; TPA and DDP concurrently for 1 h): 2.5 fold | toxicity of TPA by itself ([3]; concentrations): did not cause any toxicity by itself | DDP sensitization under continuous exposure ([3]; continuous exposure to both TPA and DDP for the full period of colony formation): no change in DDP sensitivity was evident | decrease in sensitivity to etoposide and vincristine [4]: 50% | cAMP level, 10 min. mean [2]: 2.7 pmol/mg protein | cAMP level, % of the untreated control ([2]; 60 min): 38% | cAMP level, % of the vehicle control ([2]; 60 min): 65% | cAMP level, 60 min. mean [2]: 8.2 pmol/mg protein | effect of TPA on cellular accumulation of [195mPt]DDP [5]: neither the acetone nor the TPA produced any effect on cellular accumulation | survival, % of control (S.D.) ([6]; absence of CHM): 33±5% | survival, % of controls (S.D.) ([6]; presence of CHM 5 μg/ml): 41±7% | sensitization to DDP [7]: 2.6 fold

N.N.O=C([O-])C1(C(=O)[O-])CCC1.[Pt+2] [carboplatin]
effect of EGF on sensitivity of 2008 cells to the agent (in words) [1, 10]: significant increase in sensitivity | Dose modifying factor (ratio of the IC50 values in control and EGF-treated cells) [1, 12]: 1.8 ± 0.4 | IC50 ([1]; read-out: IC50 in absence of EGF, cytotoxic agent for 1 h, no EGF): 120 µM | IC50 [1, 13]: 67 µM

CC(=O)N(O)CCCCCNC(=O)CCC(=O)N(O)CCCCCNC(=O)CCC(=O)N(O)CCCCCN [desferrioxamine]
increase in number of human EGF receptors [8]: approximately 2 fold | modulation of DDP sensitivity in the absence of EGF ([9]; 10 μM desferrioxamine, no EGF): did not modulate the sensitivity of transfected C127 cells in the absence of EGF | toxicity to transfected C127 mouse fibroblasts ([9]; 10 μM, prolonged incubation for 2 weeks): non-toxic | increase in sensitivity to the cytotoxicity of DDP vs control cells ([9]; desferrioxamine treated cells, in the presence of 10 nM EGF): approximately 2 fold

COc1cccc2c1C(=O)c1c(O)c3c(c(O)c1C2=O)C[C@@](O)(C(=O)CO)C[C@@H]3O[C@H]1C[C@H](N)[C@H](O)[C@H](C)O1 [doxorubicin]
effect of EGF on sensitivity of 2008 cells to the agent (in words) [1, 10]: no significant effect | IC50 [1, 11]: 1.5 µM | Dose modifying factor (ratio of the IC50 values in control and EGF-treated cells) [1, 12]: 1.1 ± 0.2 | IC50 [1, 13]: 1.4 µM

N[C@@H](Cc1ccc(N(CCCl)CCCl)cc1)C(=O)O [melphalan]
Dose modifying factor (ratio of the IC50 values in control and EGF-treated cells) [1]: 1.4 ± 0.4 | effect of EGF on sensitivity of 2008 cells to the agent (in words) [1]: the effect did not reach the level of statistical significance | IC50 [1, 11]: 12 µM | IC50 ([1]; read-out: IC50 in presence of EGF): 9 µM

CC1=C[C@H]2[C@@]3(O)[C@H](C)[C@@H](O)[C@]4(O)[C@H]([C@@H]3C=C(CO)C[C@]2(O)C1=O)C4(C)C [phorbol]
effect of phorbol on DDP sensitivity ([3]; 10^7 M phorbol for 1-h with DDP): failed to enhance DDP sensitivity, and, in fact slightly reduced it

CN[C@@H]1C[C@H]2O[C@@](C)([C@@H]1OC)n1c3ccccc3c3c4c(c5c6ccccc6n2c5c31)C(=O)NC4 [staurosporine]
effect of staurosporine by itself on sensitivity to DDP ([3]; control experiments): did not enhance or inhibit sensitivity to DDP | survival, % of that produced by DDP alone ([3]; staurosporine pretreatment 1 h, then DDP and TPA (all three agents)): 96%

CC(=O)O[C@H]1C(=O)[C@@]2(C)[C@H]([C@H](OC(=O)c3ccccc3)[C@]3(O)C[C@H](OC(=O)[C@H](O)[C@@H](NC(=O)c4ccccc4)c4ccccc4)C(C)=C1C3(C)C)[C@]1(OC(C)=O)CO[C@@H]1C[C@@H]2O [taxol]
effect of EGF on sensitivity of 2008 cells to the agent (in words) [1, 10]: significant increase in sensitivity | IC50 [1, 11]: 0.01 µM | IC50 ([1]; Homo sapiens, Ovarian carcinoma cell, 1 h, read-out: IC50 in presence of EGF): 0.007 µM | Dose modifying factor (ratio of the IC50 values in control and EGF-treated cells) [1, 12]: 1.4 ± 0.1
